Results published in the supplement of paper PMC7017272.
± gives the standard deviation of the averaged measurements.

Columns and labels:
UT-SCC-24A [1] = experiment: maximal % inhibition of viability relative to DMSO; higher = stronger effect; settings: treatment time: 3 days
Protocol: (§1)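 HNSCC cell lines (500 cells/well, 384-well) were cultured on plastic, on top of (2D) or embedded (3D) in Matrigel or human leiomyoma matrix Myogel (500 ug/mL; Myogel 3D mixed with rat collagen I). Cells were treated for 3 days with 5 ten-fold concentrations of each drug, and viability was read by CellTiter-Glo. Viability was normalised to DMSO (0% inhibition) and 100 uM benzethonium chloride (100% inhibition) controls and fitted with the FIMM DSRT pipeline to give IC50 (nM), maximal % inhibition and the drug sensitivity score (DSS). Suffixes _1/_2/_3 on drug names are replicates.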

UT-SCC-106A [2] = experiment: drug sensitivity score (DSS); higher = more sensitive; extreme values may be limits of the assay; settings: treatment time: 3 days
Summary of the method: (§2)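 Using 384-well plates, 500 cells/well of HPV-negative HNSCC cell lines were grown on plastic, on 500 µg/mL Matrigel or Myogel coatings, or embedded in Matrigel or Myogel with rat collagen I. They were treated with compounds at five 10-fold concentrations for 3 days, and luminescence from CellTiter-Glo 2.0 was normalised to vehicle (0.1% DMSO) and cell-killing control wells. IC50, maximal inhibition and drug sensitivity score were derived from percent-inhibition dose–response curves in the FIMM pipeline.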

UT-SCC-14 [3] = experiment: as above; settings: treatment time: 3 days
Summary of the method: as §2

UT-SCC-24B = experiment: as above; settings: treatment time: 3 days
Summary of the method: as §2

UT-SCC-28 = experiment: as above; settings: treatment time: 3 days
Summary of the method: as §2

UT-SCC-40 = experiment: as above; settings: treatment time: 3 days
Summary of the method: as §2

UT-SCC-42A [4] = experiment: as above; settings: treatment time: 3 days
Summary of the method: as §2

UT-SCC-42B [5] = experiment: as above; settings: treatment time: 3 days
Summary of the method: as §2

UT-SCC-44 [6] = experiment: as above; settings: treatment time: 3 days
Summary of the method: as §2

UT-SCC-73 [7] = experiment: as above; settings: treatment time: 3 days
Summary of the method: as §2

UT-SCC-81 = experiment: as above; settings: treatment time: 3 days
Summary of the method: as §2

UT-SCC-8 [8] = experiment: as above; settings: treatment time: 3 days
Summary of the method: as §2

UT-SCC-106A [9] = experiment: relative IC50 (midpoint of the fitted curve; maximal inhibition may be below 50%); higher = less potent; settings: treatment time: 3 days
Summary of the method: as §2

UT-SCC-14 [10] = experiment: as above; settings: treatment time: 3 days
Summary of the method: as §2

UT-SCC-42A [11] = experiment: as above; settings: treatment time: 3 days
Summary of the method: as §2

UT-SCC-42B [12] = experiment: as above; settings: treatment time: 3 days
Summary of the method: as §2

UT-SCC-44 [13] = experiment: as above; settings: treatment time: 3 days
Summary of the method: as §2

UT-SCC-73 [14] = experiment: as above; settings: culture condition: embedded in Matrigel; treatment time: 3 days
Summary of the method: as §2

UT-SCC-8 [15] = experiment: as above; settings: treatment time: 3 days
Summary of the method: as §2

UT-SCC-24A [16] = experiment: relative IC50 (midpoint of the fitted curve; maximal inhibition may be below 50%); higher = less potent; settings: treatment time: 3 days
Protocol: as §1

[17] = culture condition: embedded in Matrigel
[18] = culture condition: embedded in Myogel + collagen I
[19] = culture condition: on top of Matrigel
[20] = culture condition: on top of Myogel
[21] = culture condition: plastic 2D (no matrix)

CN(C)C/C=C/C(=O)Nc1cc2c(Nc3ccc(F)c(Cl)c3)ncnc2cc1O[C@H]1CCOC1 [Afatinib]
maximal % inhibition of viability (UT-SCC-24A [1]; [17]): 79.9 ± 1.1% | maximal % inhibition of viability (UT-SCC-24A [1]; [18]): 38.8 ± 2.3% | maximal % inhibition of viability (UT-SCC-24A [1]; [19]): 68.23 ± 0.59% | maximal % inhibition of viability (UT-SCC-24A [1]; [20]): 20.3 ± 3.7% | maximal % inhibition of viability (UT-SCC-24A [1]; [21]): 67.1 ± 4% | drug sensitivity score (UT-SCC-106A [2]; [17]): 10.9 ± 1.4 DSS | drug sensitivity score (UT-SCC-106A [2]; [18]): 0 DSS | drug sensitivity score (UT-SCC-106A [2]; [19]): 13.7 ± 2.2 DSS | drug sensitivity score (UT-SCC-106A [2]; [20]): 0.133 ± 0.23 DSS | drug sensitivity score (UT-SCC-106A [2]; [21]): 13.7 ± 1.7 DSS | drug sensitivity score (UT-SCC-14 [3]; [17]): 13.8 ± 3 DSS | drug sensitivity score (UT-SCC-14 [3]; [18]): 9.3 ± 6.4 DSS | drug sensitivity score (UT-SCC-14 [3]; [19]): 12.5 ± 1.4 DSS | drug sensitivity score (UT-SCC-14 [3]; [20]): 7.33 ± 3.8 DSS | drug sensitivity score (UT-SCC-14 [3]; [21]): 12.1 ± 4.1 DSS | drug sensitivity score (UT-SCC-24B; [17]): 11.4 ± 0.72 DSS | drug sensitivity score (UT-SCC-24B; [18]): 4.57 ± 0.58 DSS | drug sensitivity score (UT-SCC-24B; [19]): 10.9 ± 0.96 DSS | drug sensitivity score (UT-SCC-24B; [20]): 2.3 ± 0.7 DSS | drug sensitivity score (UT-SCC-24B; [21]): 16.1 ± 0.56 DSS | drug sensitivity score (UT-SCC-28; [17]): 0 DSS | drug sensitivity score (UT-SCC-28; [18]): 0 DSS | drug sensitivity score (UT-SCC-28; [19]): 0.233 ± 0.32 DSS | drug sensitivity score (UT-SCC-28; [21]): 0 DSS | drug sensitivity score (UT-SCC-40; [17]): 16 ± 1.1 DSS | drug sensitivity score (UT-SCC-40; [18]): 2.93 ± 3.1 DSS | drug sensitivity score (UT-SCC-40; [19]): 14.5 ± 1.1 DSS | drug sensitivity score (UT-SCC-40; [20]): 3.37 ± 1.5 DSS | drug sensitivity score (UT-SCC-40; [21]): 10.2 ± 1.3 DSS | drug sensitivity score (UT-SCC-42A [4]; [17]): 9.73 ± 3.1 DSS | drug sensitivity score (UT-SCC-42A [4]; [18]): 0.767 ± 1.3 DSS | drug sensitivity score (UT-SCC-42A [4]; [19]): 12.7 ± 1.4 DSS | drug sensitivity score (UT-SCC-42A [4]; [20]): 4.33 ± 1.3 DSS | drug sensitivity score (UT-SCC-42A [4]; [21]): 10.3 ± 2.3 DSS | drug sensitivity score (UT-SCC-42B [5]; [17]): 15.7 ± 1.7 DSS | drug sensitivity score (UT-SCC-42B [5]; [19]): 11.6 ± 1.6 DSS | drug sensitivity score (UT-SCC-42B [5]; [20]): 0 DSS | drug sensitivity score (UT-SCC-42B [5]; [21]): 6.6 ± 0.72 DSS | drug sensitivity score (UT-SCC-44 [6]; [17]): 0.233 ± 0.4 DSS | drug sensitivity score (UT-SCC-44 [6]; [18]): 0 DSS | drug sensitivity score (UT-SCC-44 [6]; [19]): 0 DSS | drug sensitivity score (UT-SCC-44 [6]; [20]): 0 DSS | drug sensitivity score (UT-SCC-44 [6]; [21]): 0 DSS | drug sensitivity score (UT-SCC-73 [7]; [17]): 2.43 ± 1.8 DSS | drug sensitivity score (UT-SCC-73 [7]; [18]): 3.1 ± 5.4 DSS | drug sensitivity score (UT-SCC-73 [7]; [19]): 0 DSS | drug sensitivity score (UT-SCC-73 [7]; [20]): 0.433 ± 0.75 DSS | drug sensitivity score (UT-SCC-73 [7]; [21]): 1.47 ± 1.2 DSS | drug sensitivity score (UT-SCC-81; [17]): 23 ± 2.7 DSS | drug sensitivity score (UT-SCC-81; [18]): 6.47 ± 11 DSS | drug sensitivity score (UT-SCC-81; [19]): 18.5 ± 2.3 DSS | drug sensitivity score (UT-SCC-81; [20]): 1.6 ± 0.66 DSS | drug sensitivity score (UT-SCC-81; [21]): 12.5 ± 1.2 DSS | drug sensitivity score (UT-SCC-8 [8]; [17]): 19.8 ± 0.42 DSS | drug sensitivity score (UT-SCC-8 [8]; [18]): 0.333 ± 0.58 DSS | drug sensitivity score (UT-SCC-8 [8]; [19]): 19 ± 0.44 DSS | drug sensitivity score (UT-SCC-8 [8]; [20]): 8.37 ± 4.4 DSS | drug sensitivity score (UT-SCC-8 [8]; [21]): 18 ± 1.5 DSS | relative IC50 (UT-SCC-106A [9]; [17]): 8.12 nM | relative IC50 (UT-SCC-106A [9]; [18]): > 989 nM | relative IC50 (UT-SCC-106A [9]; [19]): 7.76 nM | relative IC50 (UT-SCC-106A [9]; [21]): 11.7 nM | relative IC50 (UT-SCC-14 [10]; [17]): 30.7 nM | relative IC50 (UT-SCC-14 [10]; [19]): 39.6 nM | relative IC50 (UT-SCC-14 [10]; [20]): 47.4 nM | relative IC50 (UT-SCC-14 [10]; [21]): 40.8 nM | relative IC50 (UT-SCC-42A [11]; [17]): 28.9 nM | relative IC50 (UT-SCC-42A [11]; [19]): 11.4 nM | relative IC50 (UT-SCC-42A [11]; [20]): 21.2 nM | relative IC50 (UT-SCC-42A [11]; [21]): 19 nM | relative IC50 (UT-SCC-42B [12]; [17]): 17.3 nM | relative IC50 (UT-SCC-42B [12]; [19]): 17.7 nM | relative IC50 (UT-SCC-42B [12]; [21]): 27.5 nM | relative IC50 (UT-SCC-44 [13]; [18]): > 989 nM | relative IC50 (UT-SCC-44 [13]; [21]): > 989 nM | relative IC50 (UT-SCC-73 [14]): 32 nM | relative IC50 (UT-SCC-8 [15]; [17]): 19.7 nM | relative IC50 (UT-SCC-8 [15]; [19]): 21 nM | relative IC50 (UT-SCC-8 [15]; [21]): 21.6 nM | relative IC50 (UT-SCC-24A [16]; [17]): 8.03 nM | relative IC50 (UT-SCC-24A [16]; [19]): 9.88 nM | relative IC50 (UT-SCC-24A [16]; [21]): 12.8 nM
